Reference: patent publication US20030207813A1, “Retroviral protease inhibitor combinations” (priority 1995, published 2003)
In brackets after ≈: the same amount, converted by molar mass.

test system: RFR2 (RFR cloned by three rounds of limiting dilution); assay: CEM-T4 cell infection assay, reverse transcriptase readout, resistant isolate RFR2; type: cell-based, HIV-1; conditions: Human immunodeficiency virus 1, 168 h, Table 6, CEM-T4 cells, 7 days, read-out: Virus Isolate (EC50 ng/mL) RFR2
Source text: RF represents the HIV-1 strain HIV-LRF and RFR represents a mixture of resistant strains obtained by selection of RF against the compound of Example 1. RFR comprises a mixture of viral strains having protease genotypes of G48V (14/40 clones); G48V, V82A (18/40 clones); G48V, L90S (2/40 clones); G48V, 154T, V82A (1/40 clones); G48M (1/40 clones); G48V, Q61H (1/40 clones); V13I, G48V (1/40 clones); G48V, F53L, V82A (1/40 clones); and G48V, V82A, C95Y (1/40 clones). RFR2 represents a mixture of resistant strains obtained by cloning RFR by three rounds of growth at limiting dilution. RFR2 comprises a mixture of viral strains having protease genotypes of G48V, V82A (13/15 clones); G17E, G48V, V82A (1/15 clones); and G48V, V82A, N37D, N88D (1/15 clones). RFRR represents a mixture of resistant strains obtained by selection of RF against the compounds of Examples 1 and 2 and then cloning by three rounds of growth at limiting dilution. RFRR comprises a mixture of viral strains having protease genotypes of G48V, 154T, L63P, V82A (7/9 clones); G48V, 154T, L63P, V82A, N88S (1/9 clones); and G48V, 154T, L63P, G73M, V82A (1/9 clones). SF162 represents the HIV-1 strain SF-162 and SF162R represents a mixture of resistant strains obtained by selection of SF162 against the compound of Example 1. SF162R comprises a mixture of viral strains having protease genotypes of M461, F53L, L63P, A71V, N88D (2/3 clones); and M46I, F53L, L63P, A71V, N88D, Q92R (1/3 clones). 89-959 represents the HIV-1 strain 89-959 and 89-959R represents a mixture of resistant strains obtained by selection of 89-959 against the compound of Example 2. 89-959R comprises a mixture of viral strains having protease genotypes of N88S (4/5 clones); and D25N, T26A, D30N, D37N, R41K, G73D, R87K, N88S (1/4 clones). NL4 represents the HIV-1 strain HIV-1NL4-3. NL4(G48V) represents a strain having a synthetically generated site-directed mutation in the protease from glycine to valine at amino acid position number 48. NL4(I84V) represents a strain having a synthetically generated site-directed mutation in the protease from isoleucine to valine at amino acid position number 84. NL4(R8Q,M46I) represents a strain having synthetically generated site-directed mutations in the protease from arginine to glutamine at amino acid position number 8 and methionine to isoleucine at amino acid position number 46. NL4(P22-538) represents a mixture of resistant strains obtained by selection of HIV-1NL4-3 against the compound of Example 10 after 22 passages comprising protease genotypes M46I, L63P, A71V, V82F, I84V (4/10); M46I, L63P, V82F, I84V (3/10); and M46I, A71V, V82F, I84V (3/10). NL4(P37-538) represents resistant strains obtained by selection of HIV-1NL4-3 against the compound of Example 10 after 37 passages comprising protease genotype M46I, L63P, A71V, 184A. NL4(538/524) represents resistant strains obtained by selection of NL4(P22-538) against the compound of Example 5 after 24 passages comprising protease genotype M46I, L63P, A71V, 184A. NL4(538/P7-AG) represents a mixture of resistant strains obtained by selection of NL4(P22-538) against the compound of Example 12 after 7 passages comprising protease genotypes M46I, L63P, A71V, 184A; and V321, V82I. NL4(538/P24-AG) represents resistant strains obtained by selection of NL4(P22-538) against the compound of Example 12 after 24 passages comprising protease genotype M46I, L63P, A71V, 184A. NLA(P19-003) represents resistant strains obtained by selection of HIV-1^NL4-3 against the compound of Example 9 after 19 passages comprising protease genotype R8K, M46I. NL4(P34-003) represents resistant strains obtained by selection of HIV-1^NL4-3 against the compound of Example 9 after 34 passages comprising protease genotype R8K, M46I, L63P, A71V, L90M.
The viral isolate resistance results summarized in Tables 4-6 were generated according to the following assay procedure or minor modifications thereof. Assays are performed in 96-well tissue culture plates. […]

Question: With CC(C)CN(C[C@@H](O)[C@H](Cc1ccccc1)NC(=O)[C@H](CC(N)=O)NC(=O)c1ccc2ccccc2n1)C(=O)NC(C)(C)C (relative stereo) [Example 1, [1S-[1R*(R*),2S*]]-N^1-[3-[[[(1,1-dimethylethyl)amino]carbonyl])2-methylpropyl)amino]-2-hydroxy-1-(phenylmethyl)propyl]-2-[(2-quinolinylcarbonyl)amino]-butanediamide] as the compound, how does the EC50 read?
Answer: 880 ng/mL (≈ 1.46 µM)

Question: Which EC50 does the source give for CC(C)(C)NC(=O)[C@@H]1CC2CCCC[C@@H]2CN1C[C@@H](O)[C@H](Cc1ccccc1)NC(=O)[C@H](CC(N)=O)NC(=O)c1ccc2ccccc2n1 (stereo in doubt) [Example 6, N-tert-Butyl decahydro-2-[2(R)-hydroxy-4-phenyl-3(S)-[[N-(2-quinolylcarbonyl)-L-asparaginyl]amino]butyl]-(4aR,8aS)-isoquinoline-3(S)-carboxamide] here?
Answer: 31 ng/mL (≈ 0.0462 µM)

Question: CNCC(=O)N[C@H](C(=O)N[C@@H](Cc1ccccc1)[C@H](O)CN(CCC(C)C)C(=O)NC(C)(C)C)C(C)(C)C [Example 2, (2R,3S)-3-(N-methylaminoacetyl-L-tert-butylglycinyl)amino-1-(N-isoamyl-N-(tert-butylcarbamoyl))amino-4-phenyl-2-butanol] was tested. Which EC50 did it give?
Answer: 367 ng/mL (≈ 0.688 µM)

Question: Which EC50 does the source give for CC(C)(C)NC(=O)[C@@H]1CN(Cc2cccnc2)CCN1C[C@@H](O)C[C@@H](Cc1ccccc1)C(=O)N[C@H]1c2ccccc2C[C@H]1O [Example 5, N-(2(R)-Hydroxy-1(S)-indanyl)-2(R)-phenylmethyl-4(S)-hydroxy-5-(1-(4-(3-pyridylmethyl)-2(S)-N′-(t-butylcarboxamido)-piperazinyl))-pentaneamide] here?
Answer: 57 ng/mL (≈ 0.0929 µM)
